Experimental data from patent US20110293530A1, “Methods and Compositions for Using Bleomycin-Derivatized Microbubbles” (ARIZONIA BOARD OF REGENTS, priority 2008, published 2011).
Entries after “also recorded” stand apart in the source; their conditions may differ.

Key:
[1] = test system: MCF-7 human breast carcinoma cells; assay: microbubble attachment to cells, parallel plate flow chamber; format: cell-based; details: 400×
Description: MCF-7 human breast carcinoma cells (ATCC, Manassas, Va.) were grown on sterile glass cover slips (40 mm) and incubated at 37° C. until they reached 40-60% confluency in a 5% fetal bovine serum/RPMI1640 medium solution.
(§1) To create biotinylated microbubbles, the synthesized biotin-bleomycin A5 ligand was conjugated to Targestar^B Targeted Ultrasound Contrast Agent (Targeson). Four hundred microliters of Coupling Reagent (Targeson) were added to 1.5 mL of conjugated Targestar^B microbubbles and incubated for 20 min at room temperature, with gentle agitation every 5 min. The product was divided into two syringes, rinsed with 1.75 mL of Infusion Buffer, and then centrifuged for 3 min at 400×g (10° C.). The infranatant was then drained to 1 mL. Fifty μL of biotinylated bleomycin A5 was added to one of the vials and both were incubated at room temperature for 20 min with gentle agitation every 5 min. To each sample was added 1.75 mL of Infusion Buffer before centrifugation for 3 min at 400×g (10° C.). This solution was then drained to 1.0 mL before recovery of the supernatant and repetition of the previous step. Finally, the supernatant was resuspended in Infusion Buffer to a final volume of 2.0 mL.
Attachment of the biotinylated microbubble to the cultured MCF-7 breast cancer cells was imaged using an inverted microscope Zeiss Axiovert 200M fitted with an AxioCam MRm camera. Adherent cancer cells on glass cover slips were assembled into a parallel plate flow chamber (Bioptechs FCS2, Micro-Environmental Systems) with a constant temperature maintained at 37° C. The prepared solution of biotinylated microbubbles was introduced into the parallel plate flow chamber via ⅛-inch diameter tubing (Silastic) at a controlled rate of 0.01 mL/min using an adjustable infusion-withdrawal syringe pump (Harvard Apparatus, Holliston, Mass.). A negative control experiment was performed using a preparation of Targestar^B microbubbles without any added biotin-bleomycin A5 ligand. ‘Normal’ human breast MCF-10A cells were used as well for comparison purposes. […]

[2] = test system: MCF-10A 'normal' human breast cells; assay: as above; format: cell-based; details: MCF-10A 'normal' breast cells; 400×; FIGS. 5, 9-11
Description: as §1
Attachment of the biotinylated microbubble to the cultured MCF-7 breast cancer cells was imaged using an inverted microscope Zeiss Axiovert 200M fitted with an AxioCam MRm camera. Adherent cancer cells on glass cover slips were assembled into a parallel plate flow chamber (Bioptechs FCS2, Micro-Environmental Systems) with a constant temperature maintained at 37° C. […]

## biotinylated bleomycin A5 [Biotinylated BLM A5]
[1]; FIGS. 3, 4, 6-8, listed as biotinylated BLM A5
  Targestar B microbubble attachment to cells (microscopy, in words): selective attachment
[1]; FIGS. 3, 4, 6-8, listed as biotinylated bleomycin
  Targestar B microbubble attachment to cells (microscopy, in words): did promote attachment
[2]
  Targestar B microbubble attachment to cells (microscopy, in words): attachment was not observed

## biotinylated deglycobleomycin A5
[1]; FIGS. 3, 4, 6-8
  Targestar B microbubble attachment to cells (microscopy, in words): does not promote Targestar B microbubble attachment; also recorded: did not reveal the presence of microbubbles attached
[2]
  Targestar B microbubble attachment to cells (microscopy, in words): does not promote Targestar B microbubble attachment; also recorded: lack of attachment
